From patent US12139492B2 (Endotarget Inc., priority 2021, dated 2024)
Read-outs that look alike come from different tables or passages of the source.

Columns and labels:
JeKo-1 cells = experiment: Antiproliferative effect, MTS cell viability assay, JeKo-1 cells; type: cell-based; settings: Homo sapiens; JeKo-1 mantle cell lymphoma cells; read-out: IC50 (anti-proliferation) JeKO-1 cells
Method in brief: (§1)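 Readout was MTS-derived formazan absorbance (490 nm) reflecting metabolically active cells. Treatment lasted 72 h over a 0–10 μM range (0.001, 0.01, 0.1, 1, 10 μM) in JeKo-1 and Mino B-cell malignancy cells.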

Mino cells = experiment: Antiproliferative effect, MTS cell viability assay, Mino cells; type: cell-based; settings: Homo sapiens, MINO, Mino mantle cell lymphoma cells; read-out: IC50 (anti-proliferation) Mino cells
Method in brief: as §1

BTK = BTK (Homo sapiens, UniProt Q06187); experiment: Degradation of BTK protein in Namalwa cells (Western blot; DC50, Dmax); settings: for DC50: cell line not given
Sequence of BTK (Q06187 whole entry): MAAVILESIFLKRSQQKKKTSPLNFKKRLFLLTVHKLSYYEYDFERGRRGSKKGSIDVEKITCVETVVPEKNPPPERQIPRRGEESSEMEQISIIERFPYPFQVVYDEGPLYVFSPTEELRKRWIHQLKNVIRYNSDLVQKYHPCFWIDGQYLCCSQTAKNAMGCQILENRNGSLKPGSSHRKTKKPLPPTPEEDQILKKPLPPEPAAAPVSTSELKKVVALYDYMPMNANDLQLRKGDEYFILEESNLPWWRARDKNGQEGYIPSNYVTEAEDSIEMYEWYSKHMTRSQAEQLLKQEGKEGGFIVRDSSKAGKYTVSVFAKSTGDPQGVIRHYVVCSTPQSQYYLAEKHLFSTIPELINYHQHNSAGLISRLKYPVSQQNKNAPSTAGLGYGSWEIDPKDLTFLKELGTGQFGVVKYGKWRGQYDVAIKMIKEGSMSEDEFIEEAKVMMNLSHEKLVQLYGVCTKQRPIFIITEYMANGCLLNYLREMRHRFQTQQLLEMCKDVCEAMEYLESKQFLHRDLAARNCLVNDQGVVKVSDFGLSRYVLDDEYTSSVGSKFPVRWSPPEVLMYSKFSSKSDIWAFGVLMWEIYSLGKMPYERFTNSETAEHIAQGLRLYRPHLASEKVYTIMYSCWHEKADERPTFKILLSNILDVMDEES

[1] = read-out: DC50 (BTK degradation), concentration giving 50% reduction of BTK expression level
[2] = read-out: Dmax (BTK degradation)

NC(=O)c1c(-c2ccc(Oc3ccccc3)cc2)nn2c1NCC[C@H]2C1CCN(C2CCN(C(=O)N3CCC(N4CCC(c5ccc6c(c5)C(=O)N(C5CCC(=O)NC5=O)C6=O)CC4)CC3)CC2)CC1 (stereo partly drawn) [Compound 387, (7S)-7-(1′-(4-(2-(2,6-dioxopiperidin-3-yl)-1,3-dioxoisoindolin-5-yl)-[1,4′-bipiperidine]-1′-carbonyl)-[1,4′-bipiperidin]-4-yl)-2-(4-phenoxyphenyl)-4,5,6,7-tetrahydropyrazolo[1,5-a]pyrimidine-3-carboxamide] was tested, and the IC50 (JeKo-1 cells) was 1000 to 10000 nM, the IC50 (Mino cells) was 1000 to 10000 nM and the Dmax (BTK) was > 90%. For the same molecule, the DC50 (BTK; BTK degradation) was 10 to 50 nM.

Nc1ncnc2c1c(-c1ccc(Oc3ccccc3)cc1)nn2C1CCN(CC2CCN(CCN3CCN(c4ccc5c(c4)CN(C4CCC(=O)NC4=O)C5=O)CC3)CC2)CC1 (centres unmarked) [Compound 204, 3-(5-(4-(2-(4-((4-(4-amino-3-(4-phenoxyphenyl)-1H-pyrazolo[3,4-d]pyrimidin-1-yl)piperidin-1-yl)methyl)piperidin-1-yl)ethyl)piperazin-1-yl)-1-oxoisoindolin-2-yl)piperidine-2,6-dione] was tested, and the IC50 (JeKo-1 cells) was 1000 to 10000 nM, the IC50 (Mino cells) was < 1000 nM and the Dmax (BTK) was > 90%. For the same molecule, the DC50 (BTK; BTK degradation) was 10 to 50 nM.

In the case of Nc1ncnc2c1c(-c1ccc(Oc3ccccc3)cc1)nn2C1CCN(C2CCN(C(=O)N3CCC(N4CCN(c5ccc6c(c5)C(=O)N(C5CCC(=O)NC5=O)C6=O)CC4)CC3)CC2)CC1 (centres unmarked) [Compound 231, 5-(4-(1-(4-(4-amino-3-(4-phenoxyphenyl)-1H-pyrazolo[3,4-d]pyrimidin-1-yl)-[1,4′-bipiperidine]-1′-carbonyl)piperidin-4-yl)piperazin-1-yl)-2-(2,6-dioxopiperidin-3-yl)isoindoline-1,3-dione], the IC50 (JeKo-1 cells) is reported as 1000 to 10000 nM, the IC50 (Mino cells) is reported as 1000 to 10000 nM and the Dmax (BTK) is reported as > 90%. It also gave a DC50 (BTK; BTK degradation) of 10 to 50 nM.

Nc1ncnc2c1c(-c1ccc(Oc3ccccc3)cc1)nn2C1CCN(C[C@H]2CCN(C[C@H]3CCN(c4ccc5c(c4)C(=O)N(C4CCC(=O)NC4=O)C5=O)C3)C2)CC1 (stereo partly drawn) [Compound 447a, 5-((R)-3-(((R)-3-((4-(4-amino-3-(4-phenoxyphenyl)-1H-pyrazolo[3,4-d]pyrimidin-1-yl)piperidin-1-yl)methyl)pyrrolidin-1-yl)methyl)pyrrolidin-1-yl)-2-(2,6-dioxopiperidin-3-yl)isoindoline-1,3-dione] was tested, and the IC50 (JeKo-1 cells) was 1000 to 10000 nM, the IC50 (Mino cells) was 1000 to 10000 nM and the DC50 (BTK; [1]) was 10 to 50 nM. For the same molecule, the Dmax (BTK; [2]) was > 90%.

In the case of Nc1ncnc2c1c(-c1ccc(Oc3ccccc3)cc1)nn2[C@@H]1CCCN(C(=O)N2CC(N3CCN(c4ccc5c(c4)CN([C@@H]4CCC(=O)NC4=O)C5=O)CC3)C2)C1 [Compound 492, (R)-3-(5-(4-(1-((R)-3-(4-amino-3-(4-phenoxyphenyl)-1H-pyrazolo[3,4-d]pyrimidin-1-yl)piperidine-1-carbonyl)azetidin-3-yl)piperazin-1-yl)-1-oxoisoindolin-2-yl)piperidine-2,6-dione], the IC50 (JeKo-1 cells) is reported as < 1000 nM, the IC50 (Mino cells) is reported as < 1000 nM and the DC50 (BTK; [1]) is reported as < 10 nM. For the same molecule, the Dmax (BTK; [2]) was > 90%.

In the case of NC(=O)c1c(-c2ccc(Oc3ccccc3)cc2)nn2c1NCC[C@H]2C1CCN(C2CCN(C(=O)N3CCN(c4ccc5c(c4)CN(C4CCC(=O)NC4=O)C5=O)CC3)CC2)CC1 (stereo partly drawn) [Compound 378, (7S)-7-(1′-(4-(2-(2,6-dioxopiperidin-3-yl)-1-oxoisoindolin-5-yl)piperazine-1-carbonyl)-[1,4′-bipiperidin]-4-yl)-2-(4-phenoxyphenyl)-4,5,6,7-tetrahydropyrazolo[1,5-a]pyrimidine-3-carboxamide], the IC50 (JeKo-1 cells) is reported as > 10000 nM, the IC50 (Mino cells) is reported as > 10000 nM and the Dmax (BTK) is reported as > 50%. The DC50 (BTK; BTK degradation) was > 50 nM.

For Nc1ncnc2c1c(-c1ccc(Oc3ccccc3)cc1)nn2C1CCN(C2CCN(C(=O)N3CCN(CCCN4CCC(c5ccc6c(c5)C(=O)N(C5CCC(=O)NC5=O)C6=O)CC4)CC3)CC2)CC1 (centres unmarked) [Compound 261, 5-(1-(3-(4-(4-(4-amino-3-(4-phenoxyphenyl)-1H-pyrazolo[3,4-d]pyrimidin-1-yl)-[1,4′-bipiperidine]-1′-carbonyl)piperazin-1-yl)propyl)piperidin-4-yl)-2-(2,6-dioxopiperidin-3-yl)isoindoline-1,3-dione], the IC50 (JeKo-1 cells) was 1000 to 10000 nM, the IC50 (Mino cells) was > 10000 nM and the Dmax (BTK) was > 90%. For the same molecule, the DC50 (BTK; BTK degradation) was 10 to 50 nM.

NC(=O)c1c(-c2ccc(Oc3ccccc3)cc2)nn2c1NCCC2C1CCN(C2CCN(C(=O)N3CCN(c4ccc5c(c4)CN(C4CCC(=O)NC4=O)C5=O)CC3)CC2)CC1 (centres unmarked) [Compound 338, 7-(1′-(4-(2-(2,6-dioxopiperidin-3-yl)-1-oxoisoindolin-5-yl)piperazine-1-carbonyl)-[1,4′-bipiperidin]-4-yl)-2-(4-phenoxyphenyl)-4,5,6,7-tetrahydropyrazolo[1,5-a]pyrimidine-3-carboxamide] was tested, and the IC50 (JeKo-1 cells) was > 10000 nM, the IC50 (Mino cells) was 1000 to 10000 nM and the Dmax (BTK) was > 50%. The DC50 (BTK; BTK degradation) was > 50 nM.

In the case of Nc1ncnc2c1c(-c1ccc(Oc3ccccc3)cc1)nn2C1CCN(C2CCN(CC3CCN(CC4CN(c5ccc6c(c5)C(=O)N(C5CCC(=O)NC5=O)C6=O)C4)CC3)CC2)CC1 (centres unmarked) [Compound 435, 5-(3-((4-((4-(4-amino-3-(4-phenoxyphenyl)-1H-pyrazolo[3,4-d]pyrimidin-1-yl)-[1,4′-bipiperidin]-1′-yl)methyl)piperidin-1-yl)methyl)azetidin-1-yl)-2-(2,6-dioxopiperidin-3-yl)isoindoline-1,3-dione], the IC50 (JeKo-1 cells) is reported as 1000 to 10000 nM, the IC50 (Mino cells) is reported as < 1000 nM and the “degradation of BTK protein” value (BTK; Namalwa B lymphocyte cells, various concentrations, 24 hours, Western blot) is reported as “dose-dependent degradation”. The DC50 (BTK; [1]) was < 10 nM and the Dmax (BTK; [2]) was > 90%.

In the case of NC(=O)c1c(-c2ccc(Oc3ccccc3)cc2)nn2c1NCC[C@H]2C1CCN(CC2CCN(C(=O)N3CCC(CC4CCN(c5ccc6c(c5)CN(C5CCC(=O)NC5=O)C6=O)CC4)CC3)CC2)CC1 (stereo partly drawn) [Compound 414, (7S)-7-(1-((1-(4-((1-(2-(2,6-dioxopiperidin-3-yl)-1-oxoisoindolin-5-yl)piperidin-4-yl)methyl)piperidine-1-carbonyl)piperidin-4-yl)methyl)piperidin-4-yl)-2-(4-phenoxyphenyl)-4,5,6,7-tetrahydropyrazolo[1,5-a]pyrimidine-3-carboxamide], the IC50 (JeKo-1 cells) is reported as < 1000 nM, the IC50 (Mino cells) is reported as < 1000 nM and the DC50 (BTK; [1]) is reported as < 10 nM. For the same molecule, the Dmax (BTK; [2]) was > 90%.

For NC(=O)c1c(-c2ccc(Oc3ccccc3)cc2)nn2c1NCCC2C1CCN(C2CCN(C(=O)N3CCN(CC4CCN(c5ccc6c(c5)C(=O)N(C5CCC(=O)NC5=O)C6=O)CC4)CC3)CC2)CC1 (centres unmarked) [Compound 351, 7-(1′-(4-((1-(2-(2,6-dioxopiperidin-3-yl)-1,3-dioxoisoindolin-5-yl)piperidin-4-yl)methyl)piperazine-1-carbonyl)-[1,4′-bipiperidin]-4-yl)-2-(4-phenoxyphenyl)-4,5,6,7-tetrahydropyrazolo[1,5-a]pyrimidine-3-carboxamide], the IC50 (JeKo-1 cells) was 1000 to 10000 nM, the IC50 (Mino cells) was < 1000 nM and the Dmax (BTK) was > 90%. It also gave a DC50 (BTK; BTK degradation) of 10 to 50 nM.

In the case of Nc1ncnc2c1c(-c1ccc(Oc3ccccc3)cc1)nn2C1CCN(C2CCN(C(=O)N3CCN(CCCC4CCN(c5ccc6c(c5)CN(C5CCC(=O)NC5=O)C6=O)CC4)CC3)CC2)CC1 (centres unmarked) [Compound 260, 3-(5-(4-(3-(4-(4-(4-amino-3-(4-phenoxyphenyl)-1H-pyrazolo[3,4-d]pyrimidin-1-yl)-[1,4′-bipiperidine]-1′-carbonyl)piperazin-1-yl)propyl)piperidin-1-yl)-1-oxoisoindolin-2-yl)piperidine-2,6-dione], the IC50 (JeKo-1 cells) is reported as 1000 to 10000 nM, the IC50 (Mino cells) is reported as 1000 to 10000 nM and the Dmax (BTK) is reported as > 75%. The DC50 (BTK; BTK degradation) was 10 to 50 nM.

For NC(=O)c1c(-c2ccc(Oc3ccccc3)cc2)nn2c1NCCC2C1CCN(CC2CCN(CCN3CCC(c4ccc5c(c4)C(=O)N(C4CCC(=O)NC4=O)C5=O)CC3)CC2)CC1 (centres unmarked) [Compound 319, 7-(1-((1-(2-(4-(2-(2,6-dioxopiperidin-3-yl)-1,3-dioxoisoindolin-5-yl)piperidin-1-yl)ethyl)piperidin-4-yl)methyl)piperidin-4-yl)-2-(4-phenoxyphenyl)-4,5,6,7-tetrahydropyrazolo[1,5-a]pyrimidine-3-carboxamide], the IC50 (JeKo-1 cells) was > 10000 nM, the IC50 (Mino cells) was 1000 to 10000 nM and the Dmax (BTK) was > 75%. The DC50 (BTK; BTK degradation) was 10 to 50 nM.

With NC(=O)c1c(-c2ccc(Oc3ccccc3)cc2)nn2c1NCCC2C1CCN(CC2CCN(CC3CCN(c4ccc5c(c4)CN(C4CCC(=O)NC4=O)C5=O)CC3)CC2)CC1 (centres unmarked) [Compound 314, 7-(1-((1-((1-(2-(2,6-dioxopiperidin-3-yl)-1-oxoisoindolin-5-yl)piperidin-4-yl)methyl)piperidin-4-yl)methyl)piperidin-4-yl)-2-(4-phenoxyphenyl)-4,5,6,7-tetrahydropyrazolo[1,5-a]pyrimidine-3-carboxamide] the IC50 (JeKo-1 cells) was 1000 to 10000 nM, the IC50 (Mino cells) was 1000 to 10000 nM and the Dmax (BTK) was > 90%. It also gave a DC50 (BTK; BTK degradation) of 10 to 50 nM.

With Nc1ncnc2c1c(-c1ccc(Oc3ccccc3)cc1)nn2C1CCN([C@H]2CCN(CC3CCN(c4ccc5c(c4)C(=O)N(C4CCC(=O)NC4=O)C5=O)CC3)C2)CC1 (stereo partly drawn) [Compound 449a, 5-(4-(((S)-3-(4-(4-amino-3-(4-phenoxyphenyl)-1H-pyrazolo[3,4-d]pyrimidin-1-yl)piperidin-1-yl)pyrrolidin-1-yl)methyl)piperidin-1-yl)-2-(2,6-dioxopiperidin-3-yl)isoindoline-1,3-dione] the IC50 (JeKo-1 cells) was < 1000 nM, the IC50 (Mino cells) was < 1000 nM and the DC50 (BTK; [1]) was < 10 nM. The Dmax (BTK; [2]) was > 90%.

With Nc1ncnc2c1c(-c1ccc(Oc3ccccc3)cc1)nn2C1CCN(C[C@H]2CCN(C[C@@H]3CCN(c4ccc5c(c4)C(=O)N(C4CCC(=O)NC4=O)C5=O)C3)C2)CC1 (stereo partly drawn) [Compound 447b, 5-((S)-3-(((R)-3-((4-(4-amino-3-(4-phenoxyphenyl)-1H-pyrazolo[3,4-d]pyrimidin-1-yl)piperidin-1-yl)methyl)pyrrolidin-1-yl)methyl)pyrrolidin-1-yl)-2-(2,6-dioxopiperidin-3-yl)isoindoline-1,3-dione] the IC50 (JeKo-1 cells) was 1000 to 10000 nM, the IC50 (Mino cells) was 1000 to 10000 nM and the DC50 (BTK; [1]) was < 10 nM. The Dmax (BTK; [2]) was > 90%.
